Test results: article PMC7098963, “Pharmacophore-Based Virtual Screening Toward the Discovery of Novel Anti-echinococcal Compounds” (Frontiers in Cellular and Infection Microbiology, 2020)
Like-named read-outs stand apart in the source and are kept apart here.

Key:
E. multilocularis = assay: Compound efficacy in E. multilocularis-infected mice; settings: for Mean cyst weight reduction (inhibition rate) / treatment efficacy versus control group, in words: 28 days; for Mean cyst weight reduction (inhibition rate): infected BALB/c mice; for deaths of mice during the 28-days treatment: n = 10; for treatment efficacy versus control group, in words: 25 and 50 mg/kg/day oral
Experimental: E. multilocularis-infected animals [BALB/c mice (SLAC Laboratory Animal Center)] were maintained by serial i.p. transplantation passages through for 6 months, the details can be found in our published paper (Liu et al., [2019]). Eighty infected BALB/c mice were prepared for in vivo treatment experiments. Parasite materials were isolated from the peritoneal cavity of the infected animals and homogenized with Hanks' balanced salt solution (HBSS). Then, after passing the parasite homogenate through a 60-mesh sieve, the E. multilocularis PSCs were collected and rinsed 5~8 times. The viability of the PSCs was determined by the methylene blue exclusion method (Liu et al., [2018]), and PSCs with > 95% viability were used in the following experiments. The PSCs were cultured in RPMI 1,640 medium supplemented with 10% CS and antibiotics (100 U/ml penicillin G and 100 μg/ml streptomycin) at 37°C in 5% CO2.
The remaining mice were orally administered 1% tragacanth solution (1% TRA) as a control. All of the mice were euthanized 2 weeks after finishing the treatment, and all of the cysts were isolated and weighed. The efficacy of the treatments was assessed based on the mean cyst weight as previously described (Liu et al., [2015]).
The LC50 and Tox50 values were calculated by the probability unit method with SPSS version 17.0. The differences in mean cyst weight were analyzed by ANOVA in SPSS 17.0, and P < 0.05 was considered statistically significant.

[1] = tested on: E. multilocularis protoscoleces; assay: In vitro drug screen with E. multilocularis protoscoleces (methylene blue exclusion); assay type: cell-based; settings: Echinococcus multilocularis, read-out: LC50 E. multilocularis PSC
Experimental: In vitro treatment of PSCs was performed in 96-well microtiter plates (Costar, USA) containing 100 PSCs per 200 μl. A solution of the test compound (6.25~100 μM) was added to each well. Nitazoxanide and mebendazole (25 μM) were used as positive controls, while RPMI 1640 medium and RPMI 1640 with 0.25% DMSO were used as negative controls. […] All experiments were carried out in triplicate and repeated at least twice.

A172 cells = assay: Cytotoxicity test, A172 cells (CCK-8); assay type: cell-based; settings: for Tox50 A172 cell: 72 h, CCK-8, 3.125~50 μM; for effect on proliferation of cancer cells (A172 cells), in words: CCK-8
Experimental: (§1) Cytotoxicity was determined using Chang liver cells and A172 cells in DMEM with 10% FBS as previously described (Liu et al., [2018]). The final concentrations of the test compounds were 3.125~50 μM for A172 cells and 6.25~100 μM for Chang liver cells. After 72 h, the cell viabilities were determined using a CCK-8 kit. The concentration that induced 50% cell toxicity (Tox50) was then calculated.

Chang liver cells = assay: Cytotoxicity test, Chang liver cells (CCK-8); assay type: cell-based; settings: for inhibition at 100 µM: Chang liver, read-out: inhibition rate, Chang liver cell; for Tox50 Changliver cell: 72 h, CCK-8, 6.25~100 μM
Experimental: as §1

[2] = Pharmacokinetics analysis in plasma of mice; assay type: in vivo, BALB/c mice; settings: for MRT last: read-out: MRT(0–t)
Experimental: To study the relationship between pharmacokinetic characteristics and treatment efficacy in vivo, compounds were administered by oral (50 mg/kg) and intramuscular (12.5 mg/kg) methods to healthy BALB/c mice ([…]). Subgroups of 3 mice each were bled at 0.25, 0.5, 1, 2, 4, 8, 16, 24, 32, and 48 h post-administration. Then, 300 μl samples of plasma were collected and centrifuged at 2,500 g for 15 min. The compounds in the plasma were extracted on Oasis HLB cartridges (Waters, Massachusetts, USA) with praziquantel as the internal standard. The HPLC-HRMS system used for separation and analysis consisted of an Accela 1250 pump, a PAL HTC autosampler, an Accela PDA detector and an Xcalibur data system (Thermo Fisher Scientific, Waltham, MA, USA). Compounds were separated on a 3-μm Waters Atlantis 2.1 mm × 100 mm column (Massachusetts, USA) with a mobile phase containing methanol and formic acid at a flow rate of 0.35 ml/min. The data were analyzed by the non-compartmental model present in DAS 2.0 (Drug Analysis System, Shanghai University of T.C.M, China). Detailed pharmacokinetic experimental methods, including a representative HPLC-MS chromatogram, a standard curve, and a plot used to confirm precision, are shown in the Supplementary Data.

[3] = Pharmacokinetics analysis in plasma of mice; assay type: in vivo, BALB/c mice; settings: drug and plasma samples left overnight
[4] = 72 h incubation, 6.25~100 μM, methylene blue exclusion
[5] = BALB/c, im, mouse plasma, intramuscular 12.5 mg/kg
[6] = BALB/c, mouse, plasma, im, 12.5 mg/kg, intramuscular 12.5 mg/kg, read-out: Cmax
[7] = BALB/c, mouse, plasma, po, 50 mg/kg, oral 50 mg/kg, read-out: Cmax
[8] = BALB/c, mouse plasma, oral 50 mg/kg
[9] = mouse plasma, intramuscular 12.5 mg/kg

COC(=O)Nc1nc2ccc(C(=O)c3ccccc3)cc2[nH]1 [MBZ, mebendazole, reference compound]
Mean cyst weight reduction (inhibition rate) (E. multilocularis; 25 mg/kg/day oral gavage): 39.66% | deaths of mice during the 28-days treatment (E. multilocularis; 25 mg/kg/day oral): 1 mice

Cc1ccc(C)c(NC(=O)CC2CCC(c3c[nH]c4ccccc34)CC2)c1 (stereo not drawn) [Compound S11]
LC50 [1, 4]: 18.7 ± 0.87 µM | Tox50 A172 cell (A172 cells): 22.72 ± 1.37 µM | effect on proliferation of cancer cells (A172 cells), in words (A172 cells): inhibited the proliferation | inhibition at 100 µM (Chang liver cells): 42.1%

C[C@H](C(=O)N(C)Cc1ccccc1)N(C)CC(=O)Nc1cccc2ccccc12 [Compound S19]
LC50 [1, 4]: 18.8 ± 1.7 µM | Tox50 A172 cell (A172 cells): 22.54 ± 1.79 µM | effect on proliferation of cancer cells (A172 cells), in words (A172 cells): inhibited the proliferation | inhibition at 100 µM (Chang liver cells): 36.5%

OC(CN1CCCCC1)Cn1c2ccc(Cl)cc2c2cc(Cl)ccc21 (stereo not drawn) [HT3]
deaths of mice during the 28-days treatment (E. multilocularis; 25 mg/kg/day oral): 2 mice | deaths of mice during the 28-days treatment (E. multilocularis; 50 mg/kg/day oral): 3 mice | treatment efficacy versus control group, in words (E. multilocularis): ineffective | Tmax [2, 5]: 1 h | MRT last [2, 5]: 18.1 ± 2.38 h | Cmax [2, 6]: 39.6 ± 11.2 ng/mL | Cmax [2, 7]: 122 ± 42.6 ng/mL | Tmax [2, 8]: 0.33 ± 0.14 h | MRT last [2, 8]: 4.16 ± 0.85 h

COc1cccc(NC(=O)CN(C)CC(=O)Nc2ccc(F)c(Cl)c2)c1 [Compound S1]
LC50 [1, 4]: 20.4 ± 0.51 µM | Tox50 Changliver cell (Chang liver cells): 43.98 ± 1.38 µM

CCN(CC(=O)Nc1cc(Cl)cc(Cl)c1)Cc1nc(=O)c2ccc(Cl)cc2[nH]1 [Compound S28]
LC50 [1, 4]: 19.9 ± 0.31 µM | Tox50 A172 cell (A172 cells): 20.99 ± 4.12 µM | effect on proliferation of cancer cells (A172 cells), in words (A172 cells): inhibited the proliferation | Tox50 Changliver cell (Chang liver cells): 35.41 ± 0.62 µM

O=C(CC1CCC(c2c[nH]c3ccccc23)CC1)Nc1cccc(Cl)c1 (stereo not drawn) [Compound S5]
LC50 [1, 4]: 18.6 ± 1 µM | Tox50 A172 cell (A172 cells): 11.98 ± 0.91 µM | effect on proliferation of cancer cells (A172 cells), in words (A172 cells): inhibited the proliferation | Tox50 Changliver cell (Chang liver cells): 42.44 ± 0.34 µM

CN(CC(=O)Nc1cccc(F)c1)CC(=O)Nc1cccc2ccccc12 [Compound S16]
LC50 [1, 4]: 17.4 ± 0.2 µM | Tox50 A172 cell (A172 cells): 21.00 ± 6.24 µM | effect on proliferation of cancer cells (A172 cells), in words (A172 cells): inhibited the proliferation | inhibition at 100 µM (Chang liver cells): 34.6%

O=C(CC1CCC(c2c[nH]c3ccccc23)CC1)Nc1cc(Cl)ccc1Cl (stereo not drawn) [Compound S6]
stability in plasma samples: detectable concentration [3]: greatly reduced | Mean cyst weight reduction (inhibition rate) (E. multilocularis; 25 mg/kg/day oral gavage): 9.53% | Mean cyst weight reduction (inhibition rate) (E. multilocularis; 50 mg/kg/day oral gavage): 14.43% | treatment efficacy versus control group, in words (E. multilocularis): no significant difference | LC50 ([1]; 72 h): 17 ± 0.93 µM | Tox50 A172 cell (A172 cells): 11.00 ± 5.00 µM | effect on proliferation of cancer cells (A172 cells), in words (A172 cells): inhibited the proliferation | Cmax [2, 7]: 1 ng/mL | Tmax [2, 8]: 4.33 ± 3.51 h | MRT last [2, 8]: 4.34 ± 2.59 h | plasma concentration, in words [2, 9]: below the detection limit | AUC(0–t) ([2]; mouse plasma, oral 50 mg/kg): 5.10 ± 4.64 ng·h/mL | Cmax ([2]; mouse plasma, oral 50 mg/kg, 50 mg/kg): 1.55 ± 1.01 ng/mL | inhibition at 100 µM (Chang liver cells): 24.6%

OC(COc1ccc(F)cc1)CN1CCN(C(c2ccccc2)c2ccccc2)CC1 (stereo not drawn) [BTB4]
deaths of mice during the 28-days treatment (E. multilocularis; 25 mg/kg/day oral): 2 mice | deaths of mice during the 28-days treatment (E. multilocularis; 50 mg/kg/day oral): 4 mice | treatment efficacy versus control group, in words (E. multilocularis): ineffective | Tmax [2, 5]: 4.67 ± 3.06 h | MRT last [2, 5]: 16 ± 1.13 h | Cmax [2, 6]: 86.4 ± 4.02 ng/mL | Cmax [2, 7]: 225 ± 55.4 ng/mL | Tmax [2, 8]: 2 h | MRT last [2, 8]: 8.08 ± 1.55 h | AUC(0–t) [2, 9]: 1589.90 ± 165.13 ng·h/mL | AUC(0–t) ([2]; mouse plasma, oral 50 mg/kg): 1692.29 ± 341.00 ng·h/mL

CN(C)[C@@H](CNC(=O)C[C@H]1Sc2ccc(Cl)cc2NC1=O)Cc1ccccc1 [Compound S39]
LC50 [1, 4]: 17.7 ± 0.74 µM | Tox50 Changliver cell (Chang liver cells): 51.46 ± 3.34 µM

Cc1ccnc(NC(=O)C2CCN(CCC(=O)Nc3ccc4c(c3)CCC4)CC2)c1 [Compound S31]
LC50 ([1]; 72 h): 19.2 ± 0.8 µM

COc1ccc([C@H]2CCCN2CC(=O)NCc2cccc(Cl)c2)c(OC)c1 [Compound S59]
LC50 [1, 4]: 19.6 ± 0.56 µM | Tox50 Changliver cell (Chang liver cells): 66.53 ± 2.99 µM
